According to US20040248859A1, “Medicinal compositions for treating secondary parathyroid hyperfunction and remedies for cardiovascular complications in association with treatment for secondary parathyroid hyperfunction” (priority 2001, published 2004):

Experiments:
[1] = tested on: 5/6 nephrectomized rats (kidney failure model with 2HPT); assay: Parathyroid hormone levels in blood (serum PTH, radioimmunoassay) of 5/6 nephrectomized rats; format: in vivo, rat; details: for effect on serum PTH levels: all doses (OCT 1.25 and 6.25 μg/kg, 1,25(OH)2D3 0.125 and 0.625 μg/kg), versus SNX control
From the text: (§1) Rats with 5/6 nephrectomy (5/6 nephrectomized rats) were used as an experimental model to examine the agent of the present invention for its effect on cardiovascular complications. Such 5/6 nephrectomized rats are widely used as an experimental nephritis model with 2HPT (Ichikawa et al., Nephrology, vol. 4, pp. 391-395, 1998).
(§2) Seven-week-old male SD rats (Japan SLC, Inc.) were subjected to 5/6 nephrectomy according to the method of Platt et al. (Platt R. et al., Clin. Sci. 11, 217-231, 1952) to remove the whole of the right kidney and 2/3 of the left kidney. The rats were then allowed to rest for 10 weeks to create a kidney failure model with 2HPT.
(§3) The nephrectomized rats were divided into 4 test groups: OCT 1.25 μg/kg group (8 rats), OCT 6.25 μg/kg group (8 rats), 1,25(OH)2D3 0.125 μg/kg group (8 rats) and 1,25(OH)2D3 0.625 μg/kg group (8 rats).
Starting at 10 weeks after surgery, the rats of each group were administered with a given dose of OCT or 1,25-dihydroxyvitamin D3 (each dissolved in phosphate buffer, pH 6.52) via the tail vein. Administration was conducted three times a week for a total of 7 administration (i.e., on Monday, Wednesday, Friday, Monday, Wednesday, Friday and Monday). Twenty-four hours after the last administration, the blood was collected from the abdominal descending aorta of each rat under ether anesthesia. The rats were then sacrificed by exsanguination and the heart and aorta were excised from each rat. […]
After serum was separated from the collected blood, the level of parathyroid hormone (PTH) contained in the serum was measured with a commercially available radioimmunoassay kit (Immutopics, Inc., USA).
(§4) The relationship between Sham control group and SNX control group was analyzed by unpaired t-test. The relationship between SNX control group and each OCT- or 1,25(OH)2D3-administered group was analyzed by Dunnett's multiple comparison test.

[2] = in vivo; cited from earlier work
[3] = tested on: 5/6 nephrectomized rats (kidney failure model with 2HPT); assay: Ca and Pi contents in individual organs (aorta and heart) of 5/6 nephrectomized rats; format: in vivo, rat
From the text: as §1, §2, §3
(§5) Starting at 10 weeks after surgery, the rats of each group were administered with a given dose of OCT or 1,25-dihydroxyvitamin D3 (each dissolved in phosphate buffer, pH 6.52) via the tail vein. Administration was conducted three times a week for a total of 7 administration (i.e., on Monday, Wednesday, Friday, Monday, Wednesday, Friday and Monday). Twenty-four hours after the last administration, the blood was collected from the abdominal descending aorta of each rat under ether anesthesia. The rats were then sacrificed by exsanguination and the heart and aorta were excised from each rat.
(§6) Six rats of sham-operated (Sham control) group were subjected to renal decapsulation alone instead of 5/6 nephrectomy and then treated in the same manner as used for the test groups, except that phosphate buffer (Ph 6.52) was administered instead of OCT or 1,25-dihydroxyvitamin D3. Likewise, 9 rats of SNX control group were treated in the same manner as used for the test groups, except that phosphate buffer (pH 6.52) was administered instead of OCT or 1,25-dihydroxyvitamin D3.
Each heart and aorta were lyophilized for 24 hours in a FREEZE DRYER FD-5N (trade name, EYELA) and then treated for 48 hours with a chloroform/methanol solution (chloroform:methanol=2:1, special-reagent-grade chloroform and methanol were both purchased from Junsei Chemical Co., Ltd.). Subsequently, each organ was dehydrated for 3 hours with acetone (special reagent grade, Junsei Chemical Co., Ltd.) and then allowed to stand at room temperature for 24 hours. After delipidization and dehydration, each organ was transferred to a crucible and weighed to determine dry weight (Mettler). Ashing was carried out in a muffle furnace KDF S90 (trade name, Denken Co., Ltd., Kyoto, Japan) at 900° C. for 12 hours. The ashed sample was mixed with […] hydrochloric acid (1.0 mL), allowed to stand for 3 hours to dissolve sufficiently, and then collected in a polypropylene tube. The crucible was washed with purified water (1.0 mL), which was then also collected in the tube. Each sample was stored at 4° C. until measurement. Ca and Pi were measured with a Hitachi 7170-E autoanalyzer to calculate the Ca and Pi contents per gram of each organ.
as §4

[4] = tested on: 5/6 nephrectomized rats (kidney failure model with 2HPT); assay: Ca and Pi in serum (serum Ca×Pi product) of 5/6 nephrectomized rats; format: in vivo, rat; details: for serum Ca×Pi product over the SNX control group: three times a week, 7 administrations
From the text: as §1, §2, §3, §5, §6
2. Ca and Pi in serum After serum was separated from the collected blood, Ca and Pi contained in the serum were measured with a Hitachi 7170-E autoanalyzer using an Autosera reagent (Daiichi Pure Chemicals Co., Ltd.) to determine the serum Ca×Pi product for each rat.
as §4

[5] = 5/6 nephrectomized rats, via tail vein
[6] = 1,25(OH)2D3 0.125 μg/kg group versus OCT 6.25 μg/kg group (almost the same serum Ca×Pi product)

Q: Which “dose at which the therapeutic effect on secondary hyperparathyroidism (decreasing effect on PTH levels) can be produced” value [1, 5] does the source give for C=C1/C(=C\C=C2/CCC[C@]3(C)[C@@H]([C@H](C)CCCC(C)(C)O)CC[C@@H]23)C[C@@H](O)C[C@@H]1O [1,25-dihydroxyvitamin D3] here?
A: The value was 0.125 µg/kg.

Q: What about the “effect on serum PTH levels” value [1] of the same compound?
A: The value was “decreasing effect on PTH levels at all doses”.

Q: And the blood half-life [2]?
A: Its blood half-life is at least 1 h.

Q: And the “Ca content in the aorta over the SNX control group” value ([3]; 0.125 and 0.625 μg/kg, p<0.001)?
A: The value was “dose-dependent significant increases”.

Q: And the “Ca content in the heart over the SNX control group” value ([3]; 0.125 and 0.625 μg/kg, p<0.001)?
A: The value was “dose-dependent significant increases”.

Q: What about the “Pi content in the aorta over the SNX control group” value ([3]; 0.125 and 0.625 μg/kg, p<0.001) of the same compound?
A: Its value is “dose-dependent significant increases”.

Q: And the “Pi content in the heart over the SNX control group” value ([3]; 0.125 and 0.625 μg/kg, p<0.001)?
A: The value was “dose-dependent significant increases”.

Q: And the “deposition of Ca in the aorta as compared to OCT” value [3, 6]?
A: Its value is “apparently higher deposition”.

Q: And the “deposition of Pi in the aorta as compared to OCT” value [3, 6]?
A: The value was “apparently higher deposition”.

Q: And the “deposition of Pi in the heart as compared to OCT” value ([3]; 1,25(OH)2D3 0.125 μg/kg group versus OCT 6.25 μg/kg group, p<0.01)?
A: Its value is “significantly higher deposition”.

Q: What about the “deposition of Ca in the heart as compared to OCT” value ([3]; 1,25(OH)2D3 0.125 μg/kg group versus OCT 6.25 μg/kg group, p<0.05) of the same compound?
A: Its value is “significantly higher deposition”.

Q: And the “serum Ca×Pi product over the SNX control group” value ([4]; 0.125 μg/kg via tail vein)?
A: The value was “no significant elevation”.

Q: And the “serum Ca×Pi product over the SNX control group” value ([4]; 0.625 μg/kg via tail vein, 24 h after last administration, p<0.001)?
A: Its value is “significant elevation”.

Q: And the “minimum dose required to produce an elevating action on Ca×Pi product” value [4, 5]?
A: The value was 0.625 µg/kg.

Q: And the “serum Ca×Pi product, comparison of the two groups” value ([4]; OCT 6.25 μg/kg group versus 1,25(OH)2D3 0.125 μg/kg group)?
A: The value was “almost the same level”.

Q: Which results are given for C=C1/C(=C\C=C2/CCC[C@]3(C)[C@@H]([C@H](C)OCCC(C)(C)O)CC[C@@H]23)C[C@@H](O)C[C@@H]1O [OCT, 1α,3β-dihydroxy-20S-(3-hydroxy-3-methylbutyloxy)-9,10-seco-5,7,10(19)-pregnatriene]?
A: effect on serum PTH levels [1]: decreasing effect on PTH levels at all doses; blood half-life [2]: about 20 minutes; deposition of Ca and Pi in the aorta and heart, OCT-administered groups versus 1,25(OH)2D3-administered groups ([3]; rat, in vivo): significantly lower deposition; blood calcium levels ([4]; rat, in vivo): does not cause increase
